Values of other authors in PMC4387274, “A phase 1 dose escalation study of BI 831266, an inhibitor of Aurora kinase B, in patients with advanced solid tumors” (Investigational New Drugs, 2014).

Columns and labels:
acute myeloid leukemia = system: acute myeloid leukemia; design: method as in PMID 23605952; conditions: compared with low-dose cytosine arabinoside control arm
[1] = 121 patients with solid malignancies

Row | SMILES | Safety in ongoing phase 1 study (solid malignancies; 105 mg in Schedule A) | Objective responses (solid malignancies; [1]) | Patients achieving SD (solid malignancies; [1]) | Objective clinical response rate (acute myeloid leukemia)
1 | CC(C)NC(=O)[C@H]1CCC[C@H]1Nc1nc(Nc2ccc(C(=O)N(C)C3CCN(C)CC3)cc2)ncc1C(F)(F)F [BI 811283] | no significant safety issues | no objective responses | a third of the patients | 
2 | CCN(CCCOc1ccc2c(Nc3cc(CC(=O)Nc4cccc(F)c4)n[nH]3)ncnc2c1)CCOP(=O)(O)O [barasertib] |  |  |  | superior objective clinical response rate
